From ChEMBL document CHEMBL1123635, “Angiotensin-converting enzyme inhibitors: perhydro-1,4-thiazepin-5-one derivatives” (J Med Chem, 1987)

What follows are molecules tested against T1, Angiotensin-converting enzyme (Oryctolagus cuniculus, UniProt P12822) (assay: Inhibitory activity against rabbit lung Angiotensin I converting enzyme with 5 mM hippuryl-histidyl-leucine as substrate).
T1 sequence (P12822 whole entry): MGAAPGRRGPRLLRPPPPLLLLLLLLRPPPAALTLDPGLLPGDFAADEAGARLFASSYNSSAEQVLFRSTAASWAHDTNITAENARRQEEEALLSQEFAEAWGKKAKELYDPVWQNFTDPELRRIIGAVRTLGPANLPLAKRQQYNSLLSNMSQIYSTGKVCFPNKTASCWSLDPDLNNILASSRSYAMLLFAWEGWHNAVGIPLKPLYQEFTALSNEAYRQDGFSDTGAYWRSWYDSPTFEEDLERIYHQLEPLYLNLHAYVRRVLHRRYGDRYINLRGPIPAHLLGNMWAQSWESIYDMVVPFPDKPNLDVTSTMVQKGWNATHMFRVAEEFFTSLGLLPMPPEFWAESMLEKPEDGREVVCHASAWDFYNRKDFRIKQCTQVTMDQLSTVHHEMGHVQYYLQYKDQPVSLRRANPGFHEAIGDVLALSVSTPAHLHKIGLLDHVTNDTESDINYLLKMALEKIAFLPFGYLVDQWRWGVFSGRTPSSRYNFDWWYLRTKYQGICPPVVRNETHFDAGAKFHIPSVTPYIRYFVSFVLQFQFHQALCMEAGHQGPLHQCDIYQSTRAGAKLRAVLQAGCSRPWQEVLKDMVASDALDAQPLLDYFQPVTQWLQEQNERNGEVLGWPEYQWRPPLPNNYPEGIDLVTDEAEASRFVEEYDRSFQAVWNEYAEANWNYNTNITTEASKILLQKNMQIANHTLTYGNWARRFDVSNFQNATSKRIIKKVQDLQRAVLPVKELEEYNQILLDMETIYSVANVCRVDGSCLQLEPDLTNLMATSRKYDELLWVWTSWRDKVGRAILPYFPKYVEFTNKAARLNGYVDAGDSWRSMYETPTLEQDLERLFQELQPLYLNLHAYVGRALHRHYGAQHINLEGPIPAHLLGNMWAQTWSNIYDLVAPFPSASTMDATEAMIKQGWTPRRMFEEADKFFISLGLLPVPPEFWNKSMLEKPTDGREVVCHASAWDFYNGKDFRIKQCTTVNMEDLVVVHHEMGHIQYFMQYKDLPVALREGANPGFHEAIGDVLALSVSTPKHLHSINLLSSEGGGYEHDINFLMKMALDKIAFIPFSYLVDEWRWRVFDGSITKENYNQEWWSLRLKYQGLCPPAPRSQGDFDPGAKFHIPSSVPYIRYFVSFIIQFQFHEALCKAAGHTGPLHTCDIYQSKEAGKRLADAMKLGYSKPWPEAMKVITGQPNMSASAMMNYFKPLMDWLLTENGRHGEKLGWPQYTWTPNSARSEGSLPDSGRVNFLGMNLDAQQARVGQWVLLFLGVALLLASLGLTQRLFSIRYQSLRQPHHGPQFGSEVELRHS

Row | Compound | IC50
1 | O=C(O)CN1C[C@@H](c2ccsc2)SC[C@H](N[C@@H](CCc2ccccc2)C(=O)O)C1=O | 4.1 nM
2 | O=C(O)CN1C[C@H](c2ccccc2)SC[C@H](N[C@@H](CCc2ccccc2)C(=O)O)C1=O | 35.5 nM
3 | O=C(O)CN1C(=O)[C@@H](N[C@@H](CCc2ccccc2)C(=O)O)CSC[C@@H]1c1ccccc1 | 78.2 nM
4 | O=C(O)CN1C[C@H](c2ccsc2)SC[C@H](N[C@@H](CCc2ccccc2)C(=O)O)C1=O | 86.9 nM
5 | O=C(O)CN1C[C@H](c2cccs2)SC[C@H](N[C@@H](CCc2ccccc2)C(=O)O)C1=O | 64.7 nM

Molecules with a lower IC50, results first:

Row | IC50 | Compound
6 | 3.7 nM | O=C(O)CN1C[C@@H](c2ccccc2)SC[C@H](N[C@@H](CCc2ccccc2)C(=O)O)C1=O
7 | 2.8 nM | O=C(O)CN1C(=O)[C@@H](N[C@@H](CCc2ccccc2)C(=O)O)CSCC1c1cccs1 (some centres undefined)
8 | 3.4 nM | O=C(O)CN1C(=O)[C@@H](N[C@@H](CCc2ccccc2)C(=O)O)CSC[C@H]1c1ccccc1
9 | 3.6 nM | O=C(O)CN1C[C@@H](c2cccs2)SC[C@H](N[C@@H](CCc2ccccc2)C(=O)O)C1=O [TEMOCAPRILAT]
